Results from US20070270455A1, “INHIBITION OF NF-kB” (priority 2005, published 2007).

Assays:
p53 null H1299 cells = experiment: p53-responsive reporter assay in p53 null cells; format: cell-based
From the text: Bars represent folds of p53 responsive reporter induction over untreated controls. Box represents western blot analysis of p53 expression in total protein lysates of both cells variants in basal and doxorubicin treated conditions (to evaluate basal and DNA-damage induced level of p53). […] Fold induction presented as fold of reporter activation over untreated control. […] Fold induction presented as fold of reporter activation over untreated control.
For cotransfection set-up, 2×10^5 cells were plated into 6 well plates and, after overnight incubation, transfected with Lipofectamin Plus reagent (Gibco BRL) with 0.5 μg of reporter plasmids (p21-ConALuc or pNF-κBLuc) in combination with different concentrations of p53, Arf, Ss-IκB, or siHDM2 expressing plasmids. Corresponding empty vectors were added into all transfections up to 2 μg of total DNA amount. […] Luciferase activity and β-galactosidase activity was measured in lysates prepared 48 hours after transfection with Cell Lysis Buffer (Promega) by luciferase assay system (Promega) or β-galactosidase enzyme system (Promega). Luminometric and colorimetric reactions were read on the Wallack 1420 plate reader (Perkin Elmer). […] Luciferase or β-galactosidase activity and protein concentration were measured in aliquots of cell lysates using standard kits (Promega, Luciferase and β-galactosidase assay systems, Biorad Protein Assay Kit).

RCC54 = experiment: Global gene expression profile by microarray hybridization, RCC54; format: cell-based; conditions: 36847 genes; at least in one dose (2 μM, 10 μM) in both cell lines RCC45 and RCC54; 16 hours
Method: RNA was isolated after 16 hours of treatment that was enough to induce p53 but before appearance of signs of cell death. Among the 36847 genes represented on the array, only 0.6% changed their mRNA abundance by at least a factor of 2 at least in one dose in both cell lines.

[1] = system: normal kidney epithelial cells and human diploid fibroblasts WI38; experiment: Cell survival assay in normal cells; format: cell-based
Method: The same experiment as described in FIG. 4A was performed with NKE, RCC45, RCC54 and ACHN cells.
5×10^3 of cells were plated in 6 well plates and treated with different concentrations of drugs for 24 hours. Then fresh drug-free medium was added. Number of colonies was estimated after 5-6 days of incubation. Cell survival was estimated as a percentage of intensity of methylene blue staining of treated cells, comparing with untreated control (methylene blue from stained colonies was extracted by 0.1% of SDS and quantitated spectrophotometrically).

p53 = experiment: Western blot of p53 phosphorylation status in RCC45 cells; format: cell-based; conditions: 9AA 5 μM or dox 1 μM, 16 hours
Method: (§1) Western blot analysis of total protein lysates was performed using antibodies against p53 (DO1) and against specific sites of phosphorylation in p53. […] HCT116 cells were treated for 30 minutes with 1 μM PS-341. PS-341 was washed off after 30 minutes and cells were re-incubated in drug free medium prior to analysis at 3 hours or 16 hours post-treatment. […] Proteasome activity was determined by measuring the absorbance of free AMC generated by cleavage of an AMC-fluorogenic peptide. The proteasome activity of untreated cells was set at 100%. […] Cell lysates were isolated at the indicated hours after treatment and used for western blotting. […]
(§2) Cells were lysed in RIPA buffer (25 mM Tris HCl, pH7.2, 125 mM NaCl, 1% NP40, 1% sodium deoxycholate, 1 mM EDTA) containing 1 mM PMSF (Sigma), 10 μg/ml of aprotinin (Sigma) and 10 μg/ml of leupeptin (Sigma). Protein concentrations were determined with BioRad Dc protein assay kit. […] The following antibodies were used: anti-p53—monoclonal mouse DO1 (Santa-Cruz), anti-p21—monoclonal mouse F-5 (Santa-Cruz), anti-mdm2—monoclonal mouse SMP14 (Santa-Cruz). p53 phosphorylation status was analyzed using phospho-p53 sampler kit from Cell signaling according to manufacturer's recommendations, anti-p65—(C20, Santa Cruz), anti-phospho-p65—(ser536, Cell Signaling), anti-IκBa—(C21, Santa Cruz), anti-p50—(NLS, Santa Cruz). […]

H1299-NF-kBLuc cells = experiment: NF-κB-responsive luciferase reporter assay; format: cell-based
[2] = system: HT1080-sip53 and HT1080-siGFP cells; experiment: Cell survival assay in isogenic cell pairs with anti-p53 or control siRNA; format: cell-based, human; conditions: anti-p53 vs control siRNA; maximum difference in HT1080 cells
RCC45ConALacZ cells = experiment: p53-responsive reporter (ConALacZ) β-galactosidase assay in RCC45 cells; format: cell-based; conditions: compared with doxorubicin
Method: 2×10^4 of RCC45ConALacZ cells were plated into wells of 96 well plates in 200 μL of phenol-red free RPMI medium with standard additives. After overnight incubation library of chemical compounds in DMSO solution together with controls was added with the help of plastic bacterial replicators (200+/−100 nL). Final concentration of compounds was around 5 μg/ml. Negative control was DMSO, positive control was doxorubicin solution (0.2, 0.6 and 2 μM). After 24 hours lysis buffer with ONPG was added directly to the medium on ice. After 3 hours of incubation at 37° C., β-galactosidase activity was estimated by reading absorbance values Wallack 1420 plate reader (Perkin Elmer) at λ=430 nm.
For cotransfection set-up, 2×10^5 cells were plated into 6 well plates and, after overnight incubation, transfected with Lipofectamin Plus reagent (Gibco BRL) with 0.5 μg of reporter plasmids (p21-ConALuc or pNF-κBLuc) in combination with different concentrations of p53, Arf, Ss-IκB, or siHDM2 expressing plasmids. […] Luciferase activity and β-galactosidase activity was measured in lysates prepared 48 hours after transfection with Cell Lysis Buffer (Promega) by luciferase assay system (Promega) or β-galactosidase enzyme system (Promega). Luminometric and colorimetric reactions were read on the Wallack 1420 plate reader (Perkin Elmer). […]

IκB = experiment: Western blot of IκB level and phosphorylation; format: cell-based; conditions: PC-3 cells, 10 μM; MCF7 cells
Method: as §1, §2

Nc1c2ccccc2nc2ccccc12 [9AA, 9-aminoacridine]
stimulation of p53 reporter activity (p53 null H1299 cells): no stimulation of reporter activity
genes that changed mRNA abundance by at least a factor of 2 (RCC54): 0.6%
sensitivity of normal cells compared with RCC and other tumor cells [1]: more resistant to 9AA
p53 phosphorylation status (p53): did not affect
TSA-stimulated NF-κB-dependent transcription (H1299-NF-kBLuc cells; 100 nM TSA): could not be blocked
NF-κB-responsive reporter activity (H1299-NF-kBLuc cells; basal and TNF-induced (10 ng/ml)): inhibited basal and TNF-induced activity of the reporter
toxicity in cells differing in p53 status [2]: less toxic to the cells with reduced p53 expression
p53 reactivation / reporter induction (in words) (RCC45ConALacZ cells): much stronger than doxorubicin
level of IκB (IκB): gradual decrease followed by complete disappearance of IκB
